According to patent publication US20070274923A1, “Non-invasive real-time in vivo bioluminescence imaging of local Ca2+ dynamics in living organisms” (priority 2005, published 2007):

Legend:
cortical neurons = experiment: Single-cell bioluminescence imaging of transfected cortical neurons; format: cell-based; details: cortical neurons with non-targeted GA reconstituted with h coelenterazine
Description: Cultures were plated on to glass-bottomed dishes and mounted to a stage adapter on a fully automated inverted microscope mounted in a black-box. GFP-Aequorin was reconstituted with 2.5-5 μM coelenterazine for 30 minutes at 37° C. Incubation of cells with coelenterazine that had been transfected with SynGA was undertaken at room temperature to reduce the consumption of the photoprotein during the reconstitution process. Cells were perfused with tyrodes buffer. Prior to bath application of NMDA, cells were perfused for 1 minute without Mg^2+. All recordings were made at room temperature (22-25° C.). […]
The fluorescence/bioluminescence wide field microscopy system was custom built by ScienceWares, Inc. The system includes a fully automated inverted microscope (200M, Zeiss Germany) and is housed in a light-tight dark box. […] Low level light emission (photon rate<100 kHz), was collected using an Image Photon Detector (IPD 3, Photek Ltd.) connected to the baseport of the microscope, which assigns an X, Y coordinate and time point for each detected photon (Miller et al., 1994). The system is fully controlled by the data acquisition software, which also converts single photon events into an image that can be superimposed with brightfield or fluorescence images made by a connected CCD camera to the C-port (Coolsnap HQ, Roper Scientific). […]

[1] = test system: Ca^2+ oscillations in somatosensory cortex slices; experiment: Mitochondrial Ca2+ oscillations in organotypic somatosensory cortex slices of mtGA transgenic mice (bioluminescence imaging); format: cell-based, mouse; details: 50 μM; oscillations generated by removal of Mg2+ from buffer; slices of P4 mtGA mice

With `[Cl-].[K+]` [KCl] the “Ca2+-induced bioluminescence signal” value (cortical neurons; 90 mM) was “robust signal”.

With `N[C@H](CCCP(=O)(O)O)C(=O)O` [D-APV] the “effect on Ca2+ oscillations detected within the mitochondrial matrix” value [1] was “completely and reversibly blocked”.

For `CN[C@H](CC(=O)O)C(=O)O` [NMDA], the “Ca2+-induced bioluminescence signal” value (cortical neurons; 100 μM) was “robust signal”.
